Data: the NIST ThermoML archive (doi:10.1021/je1007923)
Numbers after ± are expanded uncertainties.

Conditions: 101.33 kPa, Liquid, Vibrating tube method

mass density (298.15 K)	mass density (313.15 K)	SMILES	other results
698.49 ± 0.23 kg/m3		CCCCCCCC [octane]	
	1058.3 ± 0.11 kg/m3	Oc1ccccc1 [phenol]	
679.43 ± 0.23 kg/m3		CCCCCCC [heptane]	

More lines, now with the values behind:

SMILES	mass density (298.15 K)	mass density (313.15 K)	other results
Cc1cccc(O)c1 [3-methylphenol]			mass density (293.15 K): 1033.85 ± 0.09 kg/m3
Cc1ccccc1O [2-methylphenol]			mass density (308.15 K): 1032.73 ± 0.28 kg/m3
Cc1ccc(O)cc1 [4-methylphenol]		1018.8 ± 0.08 kg/m3	
